Patent publication US20170136008A1, “OXABICYCLOHEPTANES AND OXABICYCLOHEPTENES FOR THE TREATMENT OF OVARIAN CANCER” (priority 2014, published 2017)

Legend:
Assay type in all cases: cell-based, human
[1] = system: SKOV-3 ovarian cancer cells; assay: MTT cytotoxicity assay, SKOV-3; conditions: SK-OV3; MTT; read-out: IC50, viability of ovarian cancer cell line
[2] = system: OVCAR-8 ovarian cancer cells; assay: MTT cytotoxicity assay, OVCAR-8; conditions: OVCAR8, read-out: IC50, viability of ovarian cancer cell line
Protocol: (§1) SKOV-3 ovarian cancer cells were purchased from American Type Culture Collection (ATCC) (Manassas, Va.). SKOV-3 cells were cultured in McCoy's 5A medium (ATCC, Manassas, Va.) supplemented with 10% fetal bovine serum and 100 units/mL penicillin G sodium, 100 ug/mL streptomycin sulfate, and 292 μg/ml, L-glutamine (BioWhittaker, Wakersville, Md.). Luciferase-expressing cells were generated by infecting SKOV-3 cells with pCLNCX-luciferase retrovirus (SKOV-3-Luc) as previously reported (Wei, B. R. et al. 2009). Human OVCAR-8 ovarian cancer cells were provided by the National Cancer Institute (part of the NCI-60 collection). The PEO1, PEO4, and PEO6 ovarian cancer cell lines have previously been characterized (Langdon, S. P. et al. 1988) and were kindly provided by Dr. Ian Goldlust (National Center for Advancing Translational Sciences, Shady Grove, Md.). […]
(§2) Cell survival was measured by the 3-(4,5-dimethylthiazol-2-yl)-2,5-diphenyltetrazolium bromide (MTT, Invitrogen) assay. […] Absorbance values were determined at […] on a Spectra Max 250 spectrophotometer (Molecular Devices, Sunnyvale, Calif.). […] Cell viability was analyzed via the MTT assay as described above. […]

[3] = system: PEO1-Missense (PEO-1m) ovarian cancer cell line; assay: MTT cytotoxicity assay, PEO1-Missense; conditions: PEO1-Missense; MTT; read-out: IC50, viability of ovarian cancer cell line
Protocol: as §1, §2

[4] = system: PEO1-STOP (PEO-1s) ovarian cancer cell line; assay: MTT cytotoxicity assay, PEO1-STOP; conditions: PEO1-STOP; MTT; read-out: IC50, viability of ovarian cancer cell line
Protocol: as §1, §2

[5] = system: PEO4 ovarian cancer cell line; assay: MTT cytotoxicity assay, PEO4; conditions: PEO4; MTT; read-out: IC50, viability of ovarian cancer cell line
Protocol: as §1, §2

[6] = system: PEO6 ovarian cancer cell line; assay: MTT cytotoxicity assay, PEO6; conditions: read-out: IC50, viability of ovarian cancer cell line
Protocol: as §1, §2

[7] = system: OVCAR-8 PP2Ac shRNA-expressing cells; assay: Cell viability (MTT) assay, OVCAR-8 PP2Ac shRNA; conditions: OVCAR-8 PP2Ac shRNA
Protocol: Cell survival was measured by the 3-(4,5-dimethylthiazol-2-yl)-2,5-diphenyltetrazolium bromide (MTT, Invitrogen) assay. Cells were seeded at a density of 5,000 cells per well in 96-well plates and incubated at 37° C. in humidified 5% CO2 for 24 hours. The 50% inhibitory concentration (IC50) values were defined as the drug concentrations required to reduce cellular proliferation to 50% of the untreated control well. […] All MTT assays were carried out according to the manufacturer's instructions (Molecular Probes, Eugen, Oreg.). Absorbance values were determined at […] on a Spectra Max 250 spectrophotometer (Molecular Devices, Sunnyvale, Calif.). All MTT assays were performed in triplicate. […] Cells were treated with both drugs for 72 h. Cell viability was analyzed via the MTT assay as described above. Experiments were performed in triplicate, and the data are presented as a percent mean±SD.
To stably knockdown expression of PP2AC, a pLKO.1-puro plasmid-based […] shRNA targeting the sequence: […] (clone ID:TRCN0000002483, Sigma-Aldrich) was employed (PP2AC-shRNA). Additionally, a non-targeting shRNA plasmid (NT-shRNA) that targets no known human sequence was utilized as a control. […]

SKOV-3 cells = assay: Cell-cycle analysis (FACS), SKOV-3
Protocol: (§3) For cell-cycle analysis, cells were washed with PBS and fixed overnight in ice-cold 70% ethanol and stored at 4° C. Cells were then centrifuged and resuspended in 100 U RNAse (Sigma-Aldrich), and incubated at 37° C. for 20 min. Propidiumidodide solution (Invitrogen, 500 μL, 50 μg/mL in DPBS) was added to each tube and incubated in the dark at 4° C. overnight. Flow cytometry analysis was performed with CellQuestPro and data analysis was completed with ModFit LT. All data is in triplicate and presented as a percent mean±SD.

OVCAR-8 cells = assay: Cell-cycle analysis (FACS), OVCAR-8; conditions: cisplatin 5 μM
Protocol: as §3

Structure (SMILES): N.N.[Cl][Pt][Cl] [Cisplatin, cis-[PtCl2(NH3)2], reference compound]
- IC50 [1]: 7.6 ± 1.6 µM
- IC50 [2]: 7.2 ± 2.3 µM
- IC50 [3]: 2.1 ± 0.4 µM
- IC50 [4]: 2.3 ± 0.3 µM
- IC50 [5]: 4.3 ± 1.8 µM
- IC50 [6]: 8 ± 1.9 µM
- sensitivity to cisplatin, PP2Ac knockdown compared to non-targeted control [7]: sensitized
- G1 (%) (SKOV-3 cells; 24 h, cisplatin 2 μM): 23.0 ± 0.2%
- G2/M (%) (SKOV-3 cells; 24 h, cisplatin 2 μM): 8.4 ± 0.3%
- S (%) (SKOV-3 cells; 24 h, cisplatin 2 μM): 68.6 ± 0.1%
- G1 (%) (SKOV-3 cells; 24 h, cisplatin 5 μM): 11.6 ± 0.5%
- G2/M (%) (SKOV-3 cells; 24 h, cisplatin 5 μM): 13.5 ± 0.7%
- S (%) (SKOV-3 cells; 24 h, cisplatin 5 μM): 75.2 ± 1.0%
- G1 (%) (SKOV-3 cells; 24 h, cisplatin 18 μM): 49.8 ± 2.3%
- G2/M (%) (SKOV-3 cells; 24 h, cisplatin 18 μM): 16.6 ± 1.3%
- S (%) (SKOV-3 cells; 24 h, cisplatin 18 μM): 33.6 ± 1.8%
- S (%) (SKOV-3 cells; 24 h, cisplatin 18 μM, listed as cisplatin): 33±2%
- G1 (%) (SKOV-3 cells; 24 h, cisplatin 20 μM): 67.7 ± 1.2%
- G2/M (%) (SKOV-3 cells; 24 h, cisplatin 20 μM): 16.3 ± 0.9%
- S (%) (SKOV-3 cells; 24 h, cisplatin 20 μM): 16.0 ± 1.2%
- G1 (%) (SKOV-3 cells; 48 h, cisplatin 18 μM): 40.4 ± 0.8%
- G2/M (%) (SKOV-3 cells; 48 h, cisplatin 18 μM): 21.2 ± 1.0%
- S (%) (SKOV-3 cells; 48 h, cisplatin 18 μM): 38.4 ± 0.5%
- G1 (%) (OVCAR-8 cells; 24 h): 4.6 ± 2.0%
- G2/M (%) (OVCAR-8 cells; 24 h): 13.4 ± 0.6%
- S (%) (OVCAR-8 cells; 24 h): 81.9 ± 1.6%
- G1 (%) (OVCAR-8 cells; 48 h): 0.85 ± 0.3%
- G2/M (%) (OVCAR-8 cells; 48 h): 78.5 ± 2.2%
- S (%) (OVCAR-8 cells; 48 h): 20.7 ± 2.1%
